The text below walks through data of patent US7494669B2, “Delivery of physiological agents with in-situ gels comprising anionic polysaccharides” (priority 2001, dated 2009).

Where two headings read alike, the source gives them in different places.

Series [1] in a line: Gel frontal migration assay with serum. It counts as physicochemical. The settings on record: 3 mg/ml pectin with 0.0039% or 0.0078% calcium chloride on normal calf serum. The text has this: Body fluids such as blood, lacrimal fluid, lung fluid and nasal secretions contain calcium ions ([…] in blood, for example). Since Aloe pectin forms calcium gel, the role of calcium in the in-situ gelation of Aloe pectin was examined using an in vitro gelling assay with animal serum that simulates in-situ gel formation. This in vitro assay is described as a gel frontal migration assay. Animal serum was placed at the bottom of a glass tube and the Aloe pectin solution was layered on top of the serum (the pectin solution may also be placed at the bottom of the tube dependent on the density of the test solution in relation to the pectin solution). Tissue culture grade normal calf serum was used. […]
Gel formation was immediate at the contact line (interface of the solutions) and the gel phase or gel front gradually extended upward in the pectin solution over time. […] The thickness of the gel formed at the interface can be measured over time (such measurements are referred to as “gel length” hereinbelow).
The gel frontal migration assay described above was used. […] After 18 hrs at room temperature, the length of gels formed (i.e. gel thickness) was measured. […]
The gel frontal migration assay described above was used. […] The length of gels formed was measured 18 hrs later. […]

Series [2] is described as follows: Gelation of HMW Aloe pectin solution on mixing with divalent cation salts. Details: key: + indicates whole gel formation; ± partial gel formation; − no gel formation and solution remains clear and homogenous. Format: physicochemical. Here is the method:
A 0.6% (w/v) HMW Aloe pectin solution in water was mixed with calcium chloride dihydrate solutions at various concentrations, at an 1:1 ratio (1 ml to 1 ml) to achieve a final polymer concentration of 0.3% (w/v) and a final calcium chloride dihydrate concentration from 0.0019-0.5% (w/v). The mixtures were immediately vortexed together, then the tubes were kept at room temperature and observed over time.

Series [3] has as its system cells surrounding the gel. As to the kind of experiment: Local delivery of bFGF by Aloe pectin in-situ gel. It counts as in vivo, mice. From the text:
For growth factors to exert local effect on tissues surrounding the administration site, they need to be delivered in a matrix to allow them to be released in a slow or sustained manner. A delivery in saline or buffer alone is not effective in this regard. In this example, a growth factor (bFGF) was used. bFGF (basic fibroblast growth factor or FGF-2) is a growth factor known to stimulate fibroblast proliferation and angiogenesis or blood vessel formation. It was mixed with Aloe pectin (0.5%, w/v) in physiological saline at a concentration of 1-10 μg/ml and then injected subcutaneously into the lower left or right side of abdominal region of mice. One side received the control (pectin alone), and the other side received the bFGF-containing preparation. The in-situ gels from two mice were harvested along with skin at days 5-10 and subjected to fixation in formalin, sectioning, and H&E staining. Two identical areas, at either end of the gel, vertically between the gel surface and the skin muscle layer and horizontally 510 μm inward from the lateral end of the gel were selected, and the cells in these two selected areas from each gel were numerated using the NIH image software.

Setting [4] is: 0.3% (w/v) HMW Aloe pectin, salt 0 % w/v final.
[5] abbreviates: 0.3% (w/v) HMW Aloe pectin, salt 0.0019 % w/v final.
Where [6] appears, read: 0.3% (w/v) HMW Aloe pectin, salt 0.0039 % w/v final.
Where [7] appears, read: 0.3% (w/v) HMW Aloe pectin, salt 0.0156 % w/v final.
The mark [8] stands for this setting: 0.3% (w/v) HMW Aloe pectin, salt 0.0313 % w/v final.
Setting [9] is: 0.3% (w/v) HMW Aloe pectin, salt 0.0625 % w/v final.
Where [10] appears, read: 0.3% (w/v) HMW Aloe pectin, salt 0.125 % w/v final.
[11] abbreviates: 0.3% (w/v) HMW Aloe pectin, salt 0.25 % w/v final.
[12] abbreviates: 0.3% (w/v) HMW Aloe pectin, salt 0.5 % w/v final.

As to `O.O.[Ca+2].[Cl-].[Cl-]` [CaCl2•2H2O, calcium chloride dihydrate], the “Gel formation versus control without added calcium chloride” value in series [1] is on record as “gel formation increased”. Moreover, the “Gel formation on mixing with HMW Aloe pectin” value (shortened to “Gel formation on mixing”) in series [2] was “−”; in series [2] (setting [4]) it was “−”; in series [2] (setting [5]) it was “−”; in series [2] (setting [6]), “−”; in series [2] (setting [7]), “±”; in series [2] (setting [8]), “+”. Also, the “Gel formation on mixing” value in series [2] (setting [9]), in series [2] (setting [10]), in series [2] (setting [11]) and in series [2] (setting [12]) was “+” in each case.
“bFGF: basic fibroblast growth factor (FGF-2), delivered in 0.5% Aloe pectin in physiological saline”: the “Blood vessel formation surrounding the gel” value in series [3] (bFGF 10 μg/ml) is reported as “increase in blood vessel formation”. Besides, the “Cell number in bFGF-treated relative to the control (pectin alone)” value in series [3] (bFGF 1-10 μg/ml in 0.5% Aloe pectin, subcutaneous, days 5-10) is “more than 2 times”.
Consider `[Cl-].[Cl-].[Zn+2]` [ZnCl2, zinc chloride], for which the “Gel formation on mixing” value in series [2] (setting [4]) is recorded as “−”; in series [2] (setting [5]) it was “−”; in series [2] (setting [6]), “−”; in series [2] (0.3% (w/v) HMW Aloe pectin, salt 0.0078 % w/v final) it was “−”; in series [2] (setting [7]), “±”; in series [2] (setting [8]), “+”. The “Gel formation on mixing” value in series [2] (setting [9]), in series [2] (setting [10]), in series [2] (setting [11]) and in series [2] (setting [12]) was “+” throughout.
